Measured values published in patent publication US6365620B2, “Trifluoromethylpyrrolcarboxamides” (Syngenta Crop Protection, Inc., priority 1998, dated 2002).

`Cn1cc(C(=O)Nc2ccccc2-c2ccccc2)c(C(F)(F)F)c1` [Compound 1.01, N-(2-biphenylyl)-1-methyl-4-trifluoromethylpyrrol-3-carboxamide] gave a melting point of 100 to 102 °C.
